Peptide text beside a SMILES is read from it.
Experiments:
[1] = target: Urokinase-type plasminogen activator (Homo sapiens, UniProt P00749); assay: Inhibition of uPA (unknown origin) incubated for 30 mins measured for 7 mins by morrison plot analysis
Coagulation factor X = Coagulation factor X (Homo sapiens, UniProt P00742); assay: Inhibition of factor 10a (unknown origin) using Ac-QRSRpNA as substrate incubated for 30 mins measured for 7 mins by morrison plot analysis
Homo sapiens [2] = species: Homo sapiens; assay: Selectivity ratio of Ki for factor 10a (unknown origin) to Ki for factor 12a (unknown origin)
Prothrombin = Prothrombin (Homo sapiens, UniProt P00734); assay: Inhibition of thrombin (unknown origin) using Ac-ATPRpNA as substrate incubated for 30 mins measured for 7 mins by morrison plot analysis
Homo sapiens [3] = species: Homo sapiens; assay: Selectivity ratio of Ki for factor 12a (unknown origin) to Ki for factor 10a (unknown origin)
Coagulation factor XII = target: T1, Coagulation factor XII (Homo sapiens, UniProt P00748); assay: Inhibition of factor 12a (unknown origin) using Ac-QRFRpNA as substrate incubated for 30 mins measured for 7 mins by morrison plot analysis
T1 sequence (P00748 whole entry): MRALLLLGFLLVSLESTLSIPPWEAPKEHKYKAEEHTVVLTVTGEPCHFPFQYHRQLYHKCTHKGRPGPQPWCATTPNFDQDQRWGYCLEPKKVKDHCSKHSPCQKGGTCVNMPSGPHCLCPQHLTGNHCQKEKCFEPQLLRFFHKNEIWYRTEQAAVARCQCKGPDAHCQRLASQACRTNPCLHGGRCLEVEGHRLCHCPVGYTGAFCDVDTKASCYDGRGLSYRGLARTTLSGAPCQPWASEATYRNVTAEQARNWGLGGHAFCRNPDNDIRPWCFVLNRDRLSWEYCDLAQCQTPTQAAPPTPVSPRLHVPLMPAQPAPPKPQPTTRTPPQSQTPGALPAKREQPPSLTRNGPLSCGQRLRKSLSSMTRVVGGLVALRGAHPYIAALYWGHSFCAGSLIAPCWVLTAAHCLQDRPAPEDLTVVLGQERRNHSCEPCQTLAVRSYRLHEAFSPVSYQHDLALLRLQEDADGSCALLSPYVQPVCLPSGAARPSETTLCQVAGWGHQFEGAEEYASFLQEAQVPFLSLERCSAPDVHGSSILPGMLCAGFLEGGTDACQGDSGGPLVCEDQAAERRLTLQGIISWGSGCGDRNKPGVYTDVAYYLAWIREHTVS

Homo sapiens [4] = species: Homo sapiens; assay: Selectivity ratio of Ki for human plasma kallikrein to Ki for factor 12a (unknown origin)

Chain of Coagulation factor X (P00742 41-179 limits assumed): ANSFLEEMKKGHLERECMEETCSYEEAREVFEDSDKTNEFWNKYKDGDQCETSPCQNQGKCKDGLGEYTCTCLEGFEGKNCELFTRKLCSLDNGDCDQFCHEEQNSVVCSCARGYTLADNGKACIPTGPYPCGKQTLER
Chain of Coagulation factor X (P00742 235-488 limits assumed): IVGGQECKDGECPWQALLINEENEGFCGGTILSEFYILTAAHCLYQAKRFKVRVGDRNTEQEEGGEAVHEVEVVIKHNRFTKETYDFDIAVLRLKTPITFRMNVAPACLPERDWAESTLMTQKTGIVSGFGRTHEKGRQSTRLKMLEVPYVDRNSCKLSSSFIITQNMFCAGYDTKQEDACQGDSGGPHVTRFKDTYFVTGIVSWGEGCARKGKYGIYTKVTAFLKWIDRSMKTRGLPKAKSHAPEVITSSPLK

Ki [1] [µM] | Ki (Coagulation factor X) [µM] | Ratio Ki (Homo sapiens [2]) | Ki (Prothrombin) [µM] | Ratio Ki (Homo sapiens [3]) | Ki (Coagulation factor XII) [µM] | Ratio Ki (Homo sapiens [4]) | Structure (SMILES)
> 10 | 0.46 | 4 | > 10 | – | – | – | CC[C@H](C)[C@@H]1NC(=O)[C@H](CCCNC(=N)N)NC(=O)[C@H](Cc2ccccc2)NC(=O)[C@H](NC(=O)[C@H](CCC(N)=O)NC(=O)CNC(=O)CN)CSSC[C@H]2NC(=O)[C@H](C)NC(=O)CNC(=O)[C@@H]3CCCN3C(=O)[C@@H]3CSSC[C@H](C(=O)NCC(=O)N[C@@H](CO)C(=O)NCC(=O)N[C@@H](CO)C(=O)N[C@@H](CC(=O)O)C(=O)O)NC(=O)[C@H](Cc4ccc(O)cc4)NC(=O)CNC(=O)[C@H](CC(N)=O)NC(=O)CNC(=O)[C@H](CCCNC(=N)N)NC(=O)[C@H](CSSC[C@H](NC(=O)[C@H](CCCCN)NC(=O)[C@H](CCCCN)NC(=O)[C@H](CC(C)C)NC1=O)C(=O)N[C@@H](CCCNC(=N)N)C(=O)N[C@@H](CCCNC(=N)N)C(=O)N[C@@H](CC(=O)O)C(=O)N[C@@H](CO)C(=O)N[C@@H](CC(=O)O)C(=O)N3)NC(=O)[C@H]([C@@H](C)CC)NC2=O
– | 0.36 | – | – | 6 | 2.39 | – | CC(=O)N[C@@H](CCC(N)=O)C(=O)N[C@@H](CCCNC(=N)N)C(=O)N[C@@H](CO)C(=O)N[C@H](C=O)CCCNC(=N)N (Ac-QRSR-aldehyde)
> 50 | > 100 | – | > 50 | – | – | 9 | CC[C@H](C)[C@@H]1NC(=O)[C@H](CCCNC(=N)N)NC(=O)[C@H](Cc2ccccc2)NC(=O)[C@H](NC(=O)[C@H](CCC(N)=O)NC(=O)CNC(=O)[C@@H](N)CCCCN)CSSC[C@H]2NC(=O)[C@H](C)NC(=O)CNC(=O)[C@@H]3CCCN3C(=O)[C@@H]3CSSC[C@H](C(=O)NCC(=O)N[C@@H](CO)C(=O)NCC(=O)N[C@@H](CO)C(=O)N[C@@H](CC(=O)O)C(=O)O)NC(=O)[C@H](Cc4ccc(O)cc4)NC(=O)CNC(=O)[C@H](CC(N)=O)NC(=O)CNC(=O)[C@H](CCCNC(=N)N)NC(=O)[C@H](CSSC[C@H](NC(=O)[C@H](CCCCN)NC(=O)[C@H](CCCCN)NC(=O)[C@H](Cc4c[nH]c5ccccc45)NC1=O)C(=O)N[C@@H](CCCNC(=N)N)C(=O)N[C@@H](CCCNC(=N)N)C(=O)N[C@@H](CC(=O)O)C(=O)N[C@@H](CO)C(=O)N[C@@H](CC(=O)O)C(=O)N3)NC(=O)[C@H]([C@@H](C)CC)NC2=O

Source: ChEMBL document CHEMBL4428052, “Substrate-Guided Design of Selective FXIIa Inhibitors Based on the Plant-Derived Momordica cochinchinensis Trypsin Inhibitor-II (MCoTI-II) Scaffold” (J Med Chem, 2016)
